Results published in PubChem BioAssay (NCI).
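Cells were grown in 96-well plates and exposed to each compound for 48 hours at five concentrations; endpoints were interpolated linearly between bracketing concentrations, or set to the highest concentration if not reached. GI50 marks 50% less growth. TGI: concentration producing complete growth inhibition.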

Tested on: MDA-MB-468 breast
Test: NCI-60 cell line screen, 48 h

Compound	GI50	TGI
CC(C)(C)c1ccc(C(=O)Nc2sc3c(c2C(N)=O)CCC(=O)C3)cc1	506 nM	2090 nM
CCN1C(=O)N(CC)C2C1NN=c1s/c(=C3\C(=O)N(CCc4ccccc4)c4ccccc43)c(=O)n12 (centres undefined)	338 nM	2370 nM
O=C(Oc1cccnc1)c1ccsc1Nc1ccnc(C(F)(F)F)c1	1800 nM	4400 nM
CCN1C(=O)N(CC)C2C1NN=c1s/c(=C\c3ccccc3Br)c(=O)n12 (centres undefined)	35.2 nM	1150 nM
N#CN1CC[C@H](C(=O)Nc2ncc(-c3ccncc3)s2)C1	< 15.6 nM	< 28.2 nM
C[C@@H]1O[C@@H](O[C@H]2CC[C@@]3(C)[C@H](CCC4[C@@H]3C(O)C[C@]3(C)[C@@H](c5ccc(=O)oc5)CC[C@]43O)C2)[C@H](O)[C@H](O)[C@H]1O (some centres undefined)	5.94 nM	12.1 nM
CCOP(=O)(OCC)OC[C@]12CC[C@@H](C)[C@H](C)C1C1=CC[C@@H]3[C@@]4(C)CCCNC(C)(C)[C@@H]4CC[C@@]3(C)[C@]1(C)CC2 (some centres undefined)	1390 nM	2910 nM
Cc1nc2ccccc2c(/C=C/c2ccc(Br)cc2)c1C(=O)/C=C/c1ccccc1	1980 nM	4200 nM
CC(C)=CCC/C(C)=C/CC/C(C)=C/CC/C=C(\C)CC/C=C(\C)CCC(=O)Nc1ccn(C2OC(CO)C(O)C2(F)F)c(=O)n1 (centres undefined)	185 nM	35800 nM
CN1CCN(Cc2ccc(NC(=O)c3[nH]ncc3Nc3ncnc4sc5c(c34)CCCC5)cc2)CC1	476 nM	2300 nM
Cc1cccc(NC(=O)c2sc3nc4c(cc3c2N)CN(Cc2ccccc2)CC4)c1C	151 nM	11600 nM
CCCCn1c(=O)c2c(nc3n2CCCN3CCc2ccc(OCC(=O)NCCN(CC)CC)cc2)n(CCCC)c1=O	1730 nM	6860 nM
COc1ccc2cc(-c3c(-c4ccncc4)nc(-c4ccc(S(C)=O)cc4)n3C)ccc2c1 (centres undefined)	3110 nM	> 25000 nM
Cn1cc(-c2nonc2-c2cn(C)c3ccccc23)c2ccccc21	492 nM	> 32400 nM
COc1ccc(/C=N/NC(=O)Cn2c(-c3ccc(S(C)(=O)=O)cc3)nc3cc(Cl)ccc32)cc1	1510 nM	9140 nM
COc1ccc(OC)c(Cn2cc3c(c2)-c2oncc2CC3)c1	1200 nM	4370 nM

Compound	GI50	TGI
COc1ccc2c(c1)OC1=C(C(=O)OC1)C2c1cc(OC)c2c(c1)OCO2 (centres undefined)	26.4 nM	98.7 nM
CN1CCC(n2cnc(-c3ccc(F)cc3)c2-c2ccnc(N)n2)CC1	3320 nM	21100 nM
OC(c1cc2cc(Cl)c(Cl)cc2c2cc(C(F)(F)F)ccc12)C1CCCCN1 (centres undefined)	1580 nM	2940 nM
COc1ccc(C2[C@@H](Cl)C(=O)N2c2cc(OC)c(OC)c(OC)c2)cc1Cl (some centres undefined)	201 nM	963 nM
COc1ccc(C(=O)N2c3ccccc3Sc3ccccc32)c(OC)c1	327 nM	56100 nM
COc1ccc(-c2oc3cc(O)cc(O)c3c(=O)c2OC)cc1O	565 nM	3450 nM
CCN(Cc1ccc(Cl)s1)c1ccc(CO)c(Cl)c1	19.3 nM	52.6 nM
COc1cc(/C=C/[N+](=O)[O-])cc(Br)c1OC	1590 nM	3280 nM
O=C(Nc1cccc(Nc2ncc(Br)c(NCCc3cnc[nH]3)n2)c1)N1CCCC1	637 nM	9090 nM
CC(=O)Oc1ccccc1C(=O)/C=C/c1cccc([N+](=O)[O-])c1	2030 nM	4000 nM
O=C1NC(=O)C(c2cccc(Cl)c2)=C1Nc1ccc(O)c(Cl)c1	5940 nM	> 20300 nM
CCN(CCO)CC(C)Nc1ccc([N+](=O)[O-])c2sc3ccccc3c(=O)c12 (centres undefined)	1680 nM	7290 nM
CC1(C)N=C(N)N=C(N)N1c1ccc(CCCCc2ccc(S(=O)(=O)F)cc2)c(Cl)c1	281 nM	10800 nM
CC1OC(O[C@H]2/C=C/C=C/C=C/C=C/C=C/C=C/C=C/[C@H](C)[C@@H](O)[C@@H](C)[C@H](C)OC(=O)CC(O)CC(O)CCC(O)C(O)CC(O)C[C@]3(O)C[C@H](O)C(C(=O)O)C(C2)O3)C(O)[C@H](N)C1O (some centres undefined)	14900 nM	32400 nM
Cc1c(C2=C(c3cn(C)c4ccccc34)C(=O)NC2=O)c2ccccc2n1C	921 nM	> 22500 nM
CCCCCn1sc(=O)n(Cc2ccc(CNC(=O)OCc3ccc4cccc(O)c4n3)cc2)c1=O	1710 nM	3560 nM
